Assay results from patent publication US8815535B2, “Disk diffusion assay for oritavancin” (The Medicines Company, priority 2011, dated 2014).
“And” between values parts separate entries of the source, which are not always exact repeats. Equal values may be shown once. Read-outs that look alike come from different tables or passages of the source.

Columns and labels:
Assay in all cases: Disk diffusion assay (zone of inhibition)
[1] = test system: MRSA NRS123; assay type: cell-based; details: Staphylococcus aureus; for zone of inhibition at 90 µg/disc: 90 μg oritavancin; for zone of inhibition at 180 µg/disc: 180 μg oritavancin
Text: (§1) The study was designed to identify conditions that improve oritavancin diffusion in agar and consequently yield a zone diameter ≧15 mm for the CLSI quality control strain MSSA ATCC 25923. Excipients that increased the disk diffusion of oritavancin in agar relative to disks containing only oritavancin were identified and selected for further study. […] A prediffusion step at room temperature was introduced to maximize oritavancin diffusion prior to initiation of bacterial growth. In this step, the antimicrobial disks were placed on agar plates seeded with a bacterial isolate and incubated at room temperature for 3 hours. Plates were then incubated overnight at 37° C. Zone diameters around the disks in which bacterial growth was inhibited were measured with a ruler and reported in millimeters.
(§2) Ethanol-sterilized Whatman paper disks (6 mm diameter) were allowed to dry then impregnated with 20 microliters of oritavancin solution containing total amounts ranging from 90 to 360 micrograms. Disks were allowed to dry at room temperature for various times prior to use.
(§3) Bacterial suspensions were prepared and adjusted to an optical density of 0.1 at 600 nm. Standard cation-adjusted Mueller Hinton agar plates (90 mm diameter) were seeded with bacterial suspensions by initially swabbing the center of plate then moving outward towards the edge. The plate was swabbed a second time, perpendicular to the orientation of the first swab. To assess the impact of prediffusion on diameter of inhibition zones, two disks were immediately placed on one half of the plate and the plate was incubated for 3 hours at room temperature. After 3 hours, two additional disks were placed on the other half of the plate then the plate was incubated overnight at 37° C. Zone diameters were measured with a ruler and reported in millimeters.

[2] = test system: VISA NRS3; assay type: cell-based, Staphylococcus aureus; details: for zone of inhibition at 360 µg/disc: Staphylococcus aureus, 360 μg oritavancin, 3 h prediffusion, average of 2 disks, read-out: Average zone diameter
Text: as §1, §2, §3
(§4) Oritavancin powder was dissolved in freshly-prepared solutions of the indicated excipients at concentrations of 0.625, 1.25, 2.5, 5, and 10 mg/ml (adjusted for potency based on lot 875561L00 purity of 83.1%) by vortexing for a minimum of 5 minutes. Oritavancin solutions in the various excipients, while not visually clear, were free from any apparent particulates as assessed visually. Sterile Oxoid blank disks were impregnated with 20 μl of these oritavancin solutions, resulting in oritavancin disk loads ranging from 12.5 to 200 μg. Unless indicated otherwise, disks were allowed to dry overnight at room temperature prior to use.
(§5) Bacterial suspensions from isolated colonies on overnight cation-adjusted Mueller Hinton agar plates were prepared in sterile saline and adjusted to an optical density of 0.1 at 600 nm Standard cation-adjusted Mueller Hinton agar plates (90 mm diameter) were seeded with bacterial suspensions by initially swabbing the center of plate then moving outward. Swabbing was continued at a right angle and then at an oblique angle to the first and second swabs. Disks were placed upon the seeded plates with sterile forceps. Plates were then incubated overnight at 37° C. and inhibition zone diameters were measured with a ruler and reported in millimeters.

[3] = test system: MRSA U206056; assay type: cell-based, Staphylococcus aureus; details: for zone of inhibition at 360 µg/disc: read-out: Zone diameter (mm ± SD)
Text: as §1, §2, §3, §4, §5

[4] = test system: hVISA NRS2; assay type: cell-based, Staphylococcus aureus; details: NRS2; for zone of inhibition at 360 µg/disc / zone of inhibition at 90 µg/disc / zone of inhibition at 180 µg/disc: Staphylococcus aureus; for zone of inhibition at 90 µg/disc: 90 μg oritavancin; for zone of inhibition at 180 µg/disc: 180 μg oritavancin
Text: as §1, §2, §3, §4, §5

[5] = 192 h, 2.5% P80, disks stored 8 days, prediffusion, read-out: Average zone diameter
[6] = 336 h, 5% P80, disks stored 14 days, prediffusion, read-out: Average zone diameter
[7] = 336 h, 10% P80, disks stored 14 days, prediffusion, read-out: Average zone diameter
[8] = 25 μg (1.25 mg/ml) in 4% P80/Span 80 (1:1), dried overnight
[9] = NRS2, 192 h, 2.5% P80, disks stored 8 days, prediffusion, read-out: Average zone diameter
[10] = NRS2, 336 h, 5% P80, disks stored 14 days, prediffusion, read-out: Average zone diameter

## CN[C@H](CC(C)C)C(=O)N[C@H]1C(=O)N[C@@H](CC(N)=O)C(=O)N[C@H]2C(=O)N[C@H]3C(=O)N[C@H](C(=O)N[C@H](C(=O)O)c4cc(O)cc(O)c4-c4cc3ccc4O)[C@H](O[C@H]3C[C@](C)(N)[C@@H](O)[C@H](C)O3)c3ccc(c(Cl)c3)Oc3cc2cc(c3O[C@@H]2O[C@H](CO)[C@@H](O)[C@H](O)[C@H]2O[C@H]2C[C@](C)(NCc3ccc(-c4ccc(Cl)cc4)cc3)[C@@H](O)[C@H](C)O2)Oc2ccc(cc2Cl)[C@H]1O [oritavancin, N-(4-(4-chlorophenyl)benzyl)A82846B]
[1]; 360 μg in 5% P80, Average of experiments, no prediffusion, read-out: Zone diameter (mm ± SD)
  zone of inhibition at 360 µg/disc: 16 ± 0.4 mm
[1]; 360 μg in 5% P80, Average of experiments, prediffusion, read-out: Zone diameter (mm ± SD)
  zone of inhibition at 360 µg/disc: 18.8 ± 0.9 mm
[1]; 360 μg in 5% P80, Experiment 1, disks stored 14 days, 3 h prediffusion at room temperature, read-out: Zone diameter (mm ± SD)
  zone of inhibition at 360 µg/disc: 19.5 mm
[1]; 360 μg in 5% P80, Experiment 2, disks stored 8 days, 3 h prediffusion at room temperature, read-out: Zone diameter (mm ± SD)
  zone of inhibition at 360 µg/disc: 18 mm
[1]; [5]
  zone of inhibition at 90 µg/disc: 15.8 mm
  zone of inhibition at 180 µg/disc: 16.5 mm
[1]; 192 h, 360 μg in 5% P80, Experiment 2, disks stored 8 days, no prediffusion, read-out: Zone diameter (mm ± SD)
  zone of inhibition at 360 µg/disc: 15.8 ± 0.4 mm
[1]; 192 h, 360 μg oritavancin, 2.5% P80, disks stored 8 days, prediffusion, read-out: Average zone diameter
  zone of inhibition at 360 µg/disc: 16.8 mm
[1]; [6]
  zone of inhibition at 90 µg/disc: 16 mm
  zone of inhibition at 180 µg/disc: 17.3 mm
[1]; [7]
  zone of inhibition at 90 µg/disc: 15.5 mm
  zone of inhibition at 180 µg/disc: 17.3 mm
[1]; 336 h, 360 μg in 5% P80, Experiment 1, disks stored 14 days, no prediffusion, read-out: Zone diameter (mm ± SD)
  zone of inhibition at 360 µg/disc: 16.3 ± 0.4 mm
[1]; 336 h, 360 μg oritavancin, 5% P80, disks stored 14 days, prediffusion, read-out: Average zone diameter
  zone of inhibition at 360 µg/disc: 18.5 mm
[1]; 336 h, 360 μg oritavancin, 10% P80, disks stored 14 days, prediffusion, read-out: Average zone diameter
  zone of inhibition at 360 µg/disc: 17.5 mm
[2]; [8]
  Inhibition zone diameter: no zone
[2]; excipient 5% P80, disks stored 5 days at room temperature
  zone of inhibition at 360 µg/disc: 14 mm
[2]; excipient 10% HPCD, disks made same day
  zone of inhibition at 360 µg/disc: 16.8 mm
[3]; [8]
  Inhibition zone diameter: 17 mm and 18, 18 mm
[3]; Staphylococcus aureus, MRSA, 25 μg (1.25 mg/ml) in 4% P80/Span 80 (1:1), dried overnight, read-out: Inhibition zone diameter
  zone of inhibition at 25 µg/disc: 18 mm
[3]; Staphylococcus aureus, MRSA, 360 μg in 5% P80, Average of experiments, no prediffusion
  zone of inhibition at 360 µg/disc: 15 ± 0.6 mm
[3]; Staphylococcus aureus, MRSA, 360 μg in 5% P80, Average of experiments, prediffusion
  zone of inhibition at 360 µg/disc: 17.4 ± 0.5 mm
[3]; Staphylococcus aureus, MRSA, 360 μg in 5% P80, Experiment 1, disks stored 14 days, 3 h prediffusion at room temperature
  zone of inhibition at 360 µg/disc: 17.8 ± 0.4 mm
[3]; Staphylococcus aureus, MRSA, 360 μg in 5% P80, Experiment 2, disks stored 8 days, 3 h prediffusion at room temperature
  zone of inhibition at 360 µg/disc: 17 mm
[3]; Staphylococcus aureus, MRSA, 192 h, 360 μg in 5% P80, Experiment 2, disks stored 8 days, no prediffusion
  zone of inhibition at 360 µg/disc: 14.5 mm
[3]; Staphylococcus aureus, MRSA, 336 h, 360 μg in 5% P80, Experiment 1, disks stored 14 days, no prediffusion
  zone of inhibition at 360 µg/disc: 15.5 mm
[4]; 25 μg (20 μl of 1.25 mg/ml) in 4% P80/Span 80 (1:1), calcium alginate swab, dried overnight
  Inhibition zone diameter: 10 mm and 12, 12 mm
[4]; NRS2, 3 h, 360 μg oritavancin, excipient 10% HPCD, disks made same day, 3 h prediffusion, average of 2 disks, read-out: Average zone diameter
  zone of inhibition at 360 µg/disc: 17.5 mm
[4]; [9]
  zone of inhibition at 90 µg/disc: 14 mm
  zone of inhibition at 180 µg/disc: 14.8 mm
[4]; NRS2, 192 h, 360 μg in 5% P80, Experiment 2, disks stored 8 days, no prediffusion, read-out: Zone diameter (mm ± SD)
  zone of inhibition at 360 µg/disc: 14.3 ± 0.4 mm
[4]; NRS2, 192 h, 360 μg oritavancin, 2.5% P80, disks stored 8 days, prediffusion, read-out: Average zone diameter
  zone of inhibition at 360 µg/disc: 15 mm
[4]; [10]
  zone of inhibition at 90 µg/disc: 15 mm
  zone of inhibition at 180 µg/disc: 16 mm
[4]; NRS2, 336 h, 10% P80, disks stored 14 days, prediffusion, read-out: Average zone diameter
  zone of inhibition at 90 µg/disc: 15.8 mm
